Active and inactive are the calls of the source. The rule behind the calls is not given here.
Tests used:
[1] = test system: Streptomyces venezuelae; assay: Inactivation of pikromycin thioesterase in Streptomyces venezuelae assessed as rate of enzymatic hydrolysis of p-nitrophenylpropionate at 2 mM; settings: TDE = time-dependent effect
[2] = test system: Streptomyces venezuelae; assay: Inactivation of pikromycin thioesterase in Streptomyces venezuelae assessed as rate of enzymatic hydrolysis of p-nitrophenylpropionate at 2 mM after 50 mins
[3] = test system: Streptomyces venezuelae; assay: Inactivation of pikromycin thioesterase in Streptomyces venezuelae assessed as rate of enzymatic hydrolysis of p-nitrophenylpropionate at 2 mM after 6 hrs
[4] = test system: Streptomyces venezuelae; assay: Inactivation of pikromycin thioesterase in Streptomyces venezuelae assessed as rate of enzymatic hydrolysis of p-nitrophenylpropionate after 8 hrs

Row | Structure (SMILES) | Activity [1] | fold change (FC) [2] | Activity [3] | Activity [4]
1 | C[C@@H](CO)C[C@H](C)[C@H](O)[C@@H](C)C(=O)CP(=O)(Oc1ccccc1)Oc1ccccc1 | tde | 2 | Active | 
2 | CC[C@H](O)[C@@H](C)C(=O)CP(=O)(Oc1ccccc1)Oc1ccccc1 |  |  |  | Active

— ChEMBL document CHEMBL1221189, “Structural basis for macrolactonization by the pikromycin thioesterase” (Nat Chem Biol, 2006)
